Counter-ions that a name gives are not always drawn.
Tests used:
mexY (EC) strain = test: Efflux ability inhibition effect on drug efflux pump MexY (Test Examples 1 and 3): proliferation (OD595) of mexY (EC) strain with EM or LVFX at 1/4 MIC, EC75; type: cell-based, Escherichia coli; conditions: Table 51, Test Example 1, 16 to 20 hours culture, OD595; for EC75, mexY (EC) strain, EM: combined with EM at 1/4 MIC; for EC75, mexY (EC) strain, LVFX: combined with LVFX at 1/4 MIC
Summary of the method: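 E. coli ΔacrB/ΔtolC strains carrying P. aeruginosa MexAB-OprM or MexXY-OprM were grown in LB for 16 to 20 hours with EM or LVFX at ¼ MIC plus compound (0 to 800 μM). Growth was read as OD595. EC75 is the lowest compound concentration giving ≥75% growth inhibition versus antibiotic alone.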

mexB (EC) strain = test: Efflux ability inhibition effect on drug efflux pump MexB (Test Examples 1 and 3): proliferation (OD595) of mexB (EC) strain with EM or LVFX at 1/4 MIC, EC75; type: cell-based, Escherichia coli; conditions: for EC75, mexB (EC) strain, EM: combined with EM at 1/4 MIC; for EC75, mexB (EC) strain, LVFX: combined with LVFX at 1/4 MIC
Protocol: The efflux ability inhibition effect of the test compound on the drug efflux pump was evaluated using the bacterial proliferative ability in the presence of EM or LVFX as an index.
EM is a macrolide antibacterial agent and is a drug that is discharged outside the bacteria by MexB and MexY LVFX is a quinolone antibacterial agent and is a drug that is discharged outside the bacteria by MexB and MexY In a case where the test compound has an efflux ability inhibitory ability against the drug efflux pump, the proliferation of bacteria is suppressed by the combined use of EM or LVFX and the test compound, as compared with the case where EM or LVFX is used alone.
A mutant strain (hereinafter, referred to as an “mexB (EC) strain”) obtained by transferring the genes of the main multidrug efflux system MexAB-OprM of Pseudomonas aeruginosa described in Nature, 2013, Vol. 500, pp. 102 to 106 as a plasmid into Escherichia coli strains in which the acrB and tolC genes of the multidrug efflux system AcrAB-TolC were deleted as described in Journal of Infection and Chemotherapy 2008, Vol. 14, pp. 23 to 29, and a gene transfer strain (hereinafter, referred to as an “mexY (EC) strain”) of another main multidrug efflux system MexXY-OprM of Pseudomonas aeruginosa were used for the evaluation of test compounds.
In the mexB (EC) strain, an expression level of MexB of the drug efflux pump is accelerated, and in the mexY (EC) strain, an expression level of MexY of the drug efflux pump is accelerated.
For culturing each Escherichia coli strain, a 96-well plate (amount of culture medium per well: 100 μL) was used and Luria-Bertani broth (LB) culture medium was used. The inoculation amount of the bacteria was set to 10^4 to 5 CFU/well.
The mexB (EC) strain and the mexY (EC) strain were cultured for 16 to 20 hours in a culture medium to which EM or LVFX and test compounds at various concentrations (0 to 800 μM) were added, and the proliferation of the bacterial strains was evaluated by optical turbidity at 595 nm (OD595). The concentration of the antibacterial agents (EM and LVFX) in the culture medium were each set to ¼ of the minimum inhibitory concentration (MIC) (hereinafter, referred to as ¼ MIC) of the single antibacterial agent.
The proliferation of bacteria in a case where the antibacterial agent was added at the concentration of ¼ MIC in a case where the test compound was not added was measured, and compared with the proliferation of bacteria in a case where the test compound was contained, and the lowest concentration of the test compound at which the proliferation was inhibited by 75% or more was defined as the drug efflux pump inhibitory ability of the test compound as 75% inhibitory effect concentration (EC75).
The drug efflux pump inhibitory ability of each test compound in a case of being used in combination with the antibacterial agent against the mexB (EC) strain and the mexY (EC) strain was evaluated as follows according to the value of EC75. • S: EC75≤[…] • A: 12.5 μM<EC75≤25 μM • B: 25 μM<EC75≤100 μM • C: […]
In the same manner as in Test Example 1, the efflux ability inhibition effect of the test compound on the drug efflux pump was evaluated using the bacterial proliferation ability in the presence of EM or LVFX as an index.

S-3769 strain = test: Combinational effect with antibacterial agent against Pseudomonas aeruginosa (Test Examples 2 and 4): S-3769 strain with AMK or GM at 1/4 MIC, EC99; type: cell-based; conditions: S-3769 strain, Test Example 4; for EC99, combinational effect with AMK, S-3769 strain: combined with AMK at 1/4 MIC; for EC99, combinational effect with GM, S-3769 strain: combined with GM at 1/4 MIC
Summary of the method: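 EC99, the lowest test-compound concentration inhibiting growth by ≥99% (OD595), was measured with aminoglycoside AMK or GM held at ¼ MIC. Strain S-3769, a MexY-overexpressing clinical isolate, was cultured in CAMHB at 10^4 to 5 CFU/well for 16–20 h; compound range 0–800 μM.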

mexB (PA) strain = test: Combinational effect with antibacterial agent against Pseudomonas aeruginosa (Test Examples 2 and 4): mexB (PA) strain with LVFX, TC or AZT at 1/4 MIC, EC99; type: cell-based; conditions: mexB (PA) strain, Test Example 4; for EC99, combinational effect with AZT, mexB (PA): combined with AZT at 1/4 MIC; for EC99, combinational effect with LVFX, mexB (PA): combined with LVFX at 1/4 MIC; for EC99, combinational effect with TC, mexB (PA): combined with TC at 1/4 MIC
Summary of the method: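 EC99 denotes the minimum test-compound concentration (range 0–800 μM) that suppresses ≥99% of growth, measured by OD595, when combined with ¼ MIC levofloxacin (LVFX), tetracycline or aztreonam. The efflux-pump mutant mexB (PA), expressing mainly MexAB-OprM, was inoculated at 10^4–5 CFU/well in CAMHB for 16–20 h.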

[1] = Table 51, Test Example 1, 16 to 20 hours culture, OD595
[2] = Table 53, Test Example 3, same manner as Test Example 1

Row | Compound | EC75, mexY (EC) strain, EM (mexY (EC) strain) | EC75, mexY (EC) strain, LVFX (mexY (EC) strain) | EC75, mexB (EC) strain, EM (mexB (EC) strain; [1]) | EC75, mexB (EC) strain, LVFX (mexB (EC) strain; [1]) | EC99, combinational effect with AMK, S-3769 strain (S-3769 strain) | EC99, combinational effect with GM, S-3769 strain (S-3769 strain) | EC99, combinational effect with AZT, mexB (PA) (mexB (PA) strain) | EC99, combinational effect with LVFX, mexB (PA) (mexB (PA) strain) | EC99, combinational effect with TC, mexB (PA) (mexB (PA) strain) | EC75, mexB (EC) strain, EM (mexB (EC) strain; [2]) | EC75, mexB (EC) strain, LVFX (mexB (EC) strain; [2])
1 | N[C@@H](C(=O)N1CCN(Cc2cscn2)CC1)C1CCN(CCc2cc(Cl)ccc2-c2ccccc2)CC1 [Example 13, Hydrobromide of (R)-2-amino-2-(1-(2-(4-chloro-[1,1′-biphenyl]-2-yl)ethyl)piperidin-4-yl)-1-(4-(thiazol-4-ylmethyl)piperazin-1-yl)ethan-1-one] | B (25 μM<EC75≤100 μM) | B (25 μM<EC75≤100 μM) | B (25 μM<EC75≤100 μM) | B (25 μM<EC75≤100 μM) | – | – | – | – | – | – | –
2 | CCOc1cccc(/C=C/C#N)c1CN1CCN(C(=O)[C@H](N)C2CCN(CCc3ccccc3)CC2)CC1 [Example 34] | A (12.5 μM<EC75≤25 μM) | A (12.5 μM<EC75≤25 μM) | B (25 μM<EC75≤100 μM) | B (25 μM<EC75≤100 μM) | – | – | – | – | – | – | –
3 | CCOc1cccc(F)c1CN1CCN(C(=O)[C@H](N)C2CCN(CC(F)(F)c3ccccc3)CC2)CC1 [Example 54, Hydrobromide of (R)-2-amino-2-(1-(2,2-difluoro-2-phenylethyl)piperidin-4-yl)-1-(4-(2-ethoxy-6-fluorobenzyl)piperazin-1-yl) ethan-1-one] | B (25 μM<EC75≤100 μM) | B (25 μM<EC75≤100 μM) | B (25 μM<EC75≤100 μM) | B (25 μM<EC75≤100 μM) | – | – | – | – | – | – | –
4 | COc1ccccc1CN1CCN(C(=O)[C@@H](N)C2CCN(CCc3ccccc3)CC2)CC1 [Example 112, Hydrochloride of (S)-2-amino-1-(4-(2-methoxybenzyl)piperazin-1-yl)-2-(1-phenethylpiperidin-4-yl)ethan-1-one] | A (12.5 μM<EC75≤25 μM) | A (12.5 μM<EC75≤25 μM) | B (25 μM<EC75≤100 μM) | B (25 μM<EC75≤100 μM) | – | – | – | – | – | – | –
5 | COCCOc1cccc(F)c1CN1CCN(C(=O)[C@H](N)C2CCN(CCc3ccccc3)CC2)CC1 [Example 116, Hydrochloride of (R)-2-amino-1-(4-(2-fluoro-6-(2-methoxyethoxy)benzyl)piperazin-1-yl)-2-(1-phenethylpiperidin-4-yl)ethan-1-one] | B (25 μM<EC75≤100 μM) | B (25 μM<EC75≤100 μM) | A (12.5 μM<EC75≤25 μM) | A (12.5 μM<EC75≤25 μM) | – | – | – | – | – | – | –
6 | CN[C@@H](C(=O)N1CCN(Cc2ccccc2OC)CC1)C1CCN(CCc2ccccc2)CC1 [Example 131, hydrochloride of (R)-1-(4-(2-methoxybenzyl)piperazin-1-yl)-2-(methylamino)-2-(1-phenethylpiperidin-4-yl)ethan-1-one] | B (25 μM<EC75≤100 μM) | B (25 μM<EC75≤100 μM) | B (25 μM<EC75≤100 μM) | B (25 μM<EC75≤100 μM) | – | – | – | – | – | – | –
7 | COc1ccccc1CN1CCN(C(=O)[C@H](N)C2CCN(CCc3ccsc3)CC2)CC1 [Example 133, hydrochloride of (R)-2-amino-1-(4-(2-methoxybenzyl)piperazin-1-yl)-2-(1-(2-(thiophen-3-yl)ethyl)piperidin-4-yl)ethan-1-one] | B (25 μM<EC75≤100 μM) | B (25 μM<EC75≤100 μM) | – | A (12.5 μM<EC75≤25 μM) | – | – | – | – | – | – | –
8 | COc1ccccc1CN1CCN(C(=O)[C@H](N)C2CCN(CC(CN)c3ccccc3)CC2)CC1 (stereo partly drawn) [Example 136, hydrochloride of (2R)-2-amino-2-(1-(3-amino-2-phenylpropyl)piperidin-4-yl)-1-(4-(2-methoxybenzyl)piperazin-1-yl)ethan-1-one] | B (25 μM<EC75≤100 μM) | B (25 μM<EC75≤100 μM) | B (25 μM<EC75≤100 μM) | – | – | – | – | – | – | – | –
9 | CCOc1cccc(F)c1CN1CCN(C(=O)[C@H](N)C2CCN(CCc3cc(Cl)ccc3C#Cc3ccccc3)CC2)CC1 [Example 546, Hydrobromide of (R)-2-amino-2-(1-(5-chloro-2-(phenylethynyl)phenethyl)piperidin-4-yl)-1-(4-(2-ethoxy-6-fluorobenzyl)piperazin-1-yl)ethan-1-one] | – | – | – | – | S (EC99≤12.5 μM) | S (EC99≤12.5 μM) | C (100 μM<EC99) | C (100 μM<EC99) | A (12.5 μM<EC99≤25 μM) | A (12.5 μM<EC75≤25 μM) | A (12.5 μM<EC75≤25 μM)
10 | CCOc1cccc(F)c1CN1CCN(C(=O)[C@H](N)C2CCN(CCc3cc(-c4ccccc4)ccc3Cl)CC2)CC1 [Example 566, Hydrobromide of (R)-2-amino-2-(1-(2-(4-chloro-[1,1-biphenyl]-3-yl)ethyl)piperidin-4-yl)-1-(4-(2-ethoxy-6-fluorobenzyl)piperazin-1-yl)ethan-1-one] | – | – | – | – | S (EC99≤12.5 μM) | S (EC99≤12.5 μM) | B (25 μM<EC99≤100 μM) | B (25 μM<EC99≤100 μM) | B (25 μM<EC99≤100 μM) | A (12.5 μM<EC75≤25 μM) | –
11 | Cl.N[C@@H](C(=O)N1CCN(Cc2c(O)cccc2Cl)CC1)C1CCN(CCc2cc(Cl)ccc2-c2ccccc2)CC1 [Example 574, Hydrochloride of (R)-2-amino-1-(4-(2-chloro-6-hydroxybenzyl)piperazin-1-yl)-2-(1-(2-(4-chloro-[1,1-biphenyl]-2-yl)ethyl)piperidin-4-yl) ethan-1-one] | – | – | – | – | A (12.5 μM<EC99≤25 μM) | B (25 μM<EC99≤100 μM) | A (12.5 μM<EC99≤25 μM) | A (12.5 μM<EC99≤25 μM) | A (12.5 μM<EC99≤25 μM) | – | S (EC75≤12.5 M)
12 | CSc1ccccc1CN1CCN(C(=O)[C@H](N)C2CCN(CCc3cc(Cl)ccc3-c3cccc(O)c3Cl)CC2)CC1.Cl [Example 613, Hydrochloride of (R)-2-amino-2-(1-(2-(2′,4-dichloro-3′-hydroxy-[1,1-biphenyl]-2-yl)ethyl)piperidin-4-yl)-1-(4-(2-(methylthio)benzyl)piperazin-1-yl) ethan-1-one] | – | – | – | – | S (EC99≤12.5 μM) | A (12.5 μM<EC99≤25 μM) | S (EC99≤12.5 μM) | S (EC99≤12.5 μM) | S (EC99≤12.5 μM) | – | S (EC75≤12.5 M)

From patent publication US20250326744A1, “PIPERAZINE DERIVATIVE OR SALT THEREOF, AND PHARMACEUTICAL COMPOSITION” (priority 2022, published 2025)
